Values quoted from earlier work in patent US20180028452A1, “ANTIEMETIC EXTENDED RELEASE SOLID DOSAGE FORMS” (RedHill Biopharma Ltd., priority 2013, published 2018).
Counter-ions that a name gives are not always drawn.

Columns and labels:
[1] = water and normal saline
[2] = scale of Pliska et al., J. Chromatog. 216, 79, 1981

solubility [1]	hydropathy value (relative hydrophobic character) [2]	SMILES
soluble in water and normal saline	–	Cc1nccn1CC1CCc2c(c3ccccc3n2C)C1=O (racemic) [Ondansetron HCl dihydrate, Ondansetron hydrochloride]
–	−2.15	N[C@@H](CC(=O)O)C(=O)O [aspartic acid]
–	0	NCC(=O)O [glycine]
–	1.83	CC[C@H](C)[C@H](N)C(=O)O [iso-leucine]
